In patent EP2924021A1, “ANTI-HIV COMPOUND AND PREPARATION METHOD AND USE THEREOF” (priority 2012, dated 2014):
Values after ≈ are worked out from the molar mass of the structure shown. Values joined by “and” are separate entries in the source; they are usually repeats but may differ in a detail not shown here. Identical values can stand only once. Like-named read-outs stand apart in the source and are kept apart here.

Experiments:
HIV-1IIIB(H9 cells) = assay: Anti-HIV activity in H9 cells; format: cell-based; details: for TI: TI(CC50/EC50)
Procedure: (§1) The anti-HIV activity was determined by the "Guiding Principles of Anti HIV Drug Unclinical Pharmacodynamics" of SFDA which is tested by technology standard assay according to International Universal Standards and Methods. Where in CC50, EC50 were measured twice and took the average.

HIV-1IIIB (C8166 cells) = assay: Anti-HIV activity in C8166 cells; format: cell-based; details: for TI: TI(CC50/EC50)
Procedure: as §1

HIV-2 ROD = assay: Anti-HIV-2 activity and cytotoxicity; format: cell-based
Acute toxicity test = format: in vivo; details: for safety at a high dose: high dose (10g/kg); for acute toxicity test: in vivo
HIV-2 CBL-20 = assay: Anti-HIV-2 activity and cytotoxicity; format: cell-based
[1] = Pharmacokinetics: metabolism of 67 to 46, blood concentration and bioavailability; format: in vivo; details: after oral gavage of 67 by 100mg/kg
C8166 cells = assay: Cytotoxicity in C8166 cells (CC50); format: cell-based, human; details: measured twice, average
Procedure: as §1

H9 cells = assay: Cytotoxicity in H9 cells (CC50); format: cell-based, human; details: measured twice, average
Procedure: as §1

HIV-1TC-1 = details: HIV-1TC-1, clinical strain
Procedure: as §1

HIV-1A17 = details: HIV-1A17, NVP resistant
Procedure: as §1

HIVKM018 = details: HIVKM018, clinical strain
Procedure: as §1

[2] = H9 cells, HIV-1IIIB, measured twice, average
[3] = Human immunodeficiency virus 1, C8166 cells, HIV-1IIIB, measured twice, average, read-out: EC50
[4] = Human immunodeficiency virus 1, H9 cells, HIV-1IIIB, measured twice, average, read-out: EC50

Row | Molecule | EC50 (HIV-1IIIB (C8166 cells); [3]) [mg/L] | EC50 (HIV-1IIIB(H9 cells); [4]) [mg/L] | also measured
1 | COc1ccccc1NC(=O)c1c(N)cccc1Oc1ccc([N+](=O)[O-])cc1 [compound 48, 2-amino-N-(2-methoxyphenyl)-6-(4-nitrop-henoxy)benzamide] |  |  | EC50 (HIV-1IIIB(H9 cells); [2]): 35.87 mg/L (≈ 94.6 µM)
2 | COc1ccccc1NC(=O)c1c(NS(=O)(=O)c2ccccc2)cccc1S(=O)(=O)c1ccc([N+](=O)[O-])cc1 [compound 61, N-(2-methoxyphenyl)-2-((4-nitrophenyl)sulfonyl)-6-(phenylsulfonamido)benzamide] | 46.9 (≈ 82.7 µM) | > 200 | 
3 | COc1ccccc1NC(=O)c1c(N)cccc1Sc1ccc(C(=O)O)cc1 [compound 76, 4-((3-amino-2-((2-methoxyphenyl)carbamoyl)phenyl)thio)benzoic acid] | 92 (≈ 233 µM) | 100 (≈ 254 µM) | 
4 | COc1ccccc1NC(=O)c1c(NCC(N)=O)cccc1Sc1ccc([N+](=O)[O-])cc1 [compound 82, 2-((2-amino-2-oxoethyl)amino)-N-(2-methoxyphenyl)-6-((4-nitrophenyl)thio)benzamide] | > 200 | > 200 | 
5 | CNc1cccc(S(=O)(=O)c2ccc([N+](=O)[O-])cc2)c1C(=O)Nc1ccccc1OC [compound 59, N-(2-methoxyphenyl)-2-(methylamino)-6-((4-nitrophenyl)sulfonyl)benzamide] | 63.7 (≈ 144 µM) | 123 (≈ 278 µM) | 
6 | COc1ccccc1NC(=O)c1c(NC(=O)CN)cccc1S(=O)(=O)c1ccc([N+](=O)[O-])cc1.Cl.Cl [compound 67, 2-(2-aminoacetamido)-N-(2-methoxyphenyl)-6-((4-nitrophenyl)sulfonyl)benzamide hydrochloride hydrochloride] | 0.43 | 0.12 | TI (HIV-1IIIB (C8166 cells); C8166 cells): 388.04; TI (HIV-2 ROD): 161.78; TI (HIV-1IIIB(H9 cells); H9 cells): 790.58; safety at a high dose (Acute toxicity test): very safe; acute toxicity test (Acute toxicity test): no abnormal phenomenon occurred; TI (HIV-2 CBL-20): 87.82; max blood concentration of 46 [1]: 21.662 µg/mL
7 | COc1ccccc1NC(=O)c1c(NCCN)cccc1Sc1ccc([N+](=O)[O-])cc1 [compound 78, 2-((2-aminoethyl)amino)-N-(2-methoxyphenyl)-6-((4-nitrophenyl)thio)benzamide] | 16.9 (≈ 38.6 µM) | 19.9 (≈ 45.4 µM) | 
8 | COc1ccccc1NC(=O)c1cc(C(F)(F)F)ccc1Sc1ccc([N+](=O)[O-])cc1 [compound 22, N-(2-methoxyphenyl)-2-((4-nitrophenyl)thio)-5-(trifluoromethyl)benzamide] | > 200 | > 200 | 
9 | 5-(dimethylamino)-N-(2-methoxyphenyl)-2-((4-nitrophenyl)thio)benzamide [compound 28] |  |  | EC50 (HIV-1IIIB (C8166 cells); C8166 cells, HIV-1IIIB, measured twice, average): 83.84 mg/L; CC50 (C8166 cells): 93.04 mg/L; CC50 (H9 cells): 77.23 mg/L; EC50 (HIV-1IIIB(H9 cells); [2]): 98.45 mg/L
10 | COc1ccccc1NC(=O)c1c(NC(=O)C(N)CCCCN)cccc1Sc1ccc([N+](=O)[O-])cc1.Cl (centres unmarked) [compound 68, 2-(2,6-diaminohexanamido)-N-(2-methoxyphenyl)-6-((4-nitrophenyl)thio)benzamide hydrochloride] | 0.94 | 2.38 | TI (HIV-1IIIB (C8166 cells); C8166 cells): 122.45; TI (HIV-1IIIB(H9 cells); H9 cells): 37.85
11 | COc1ccccc1NC(=O)c1c(N(C)C)cccc1S(=O)(=O)c1ccc([N+](=O)[O-])cc1 [compound 58, 2-(dimethylamino)-N-(2-methoxyphenyl)-6-((4-nitrophenyl)sulfonyl)benzamide] | 100 (≈ 219 µM) | 103 (≈ 226 µM) | 
12 | COc1ccccc1NC(=O)c1c(N)cccc1S(=O)(=O)c1ccc([N+](=O)[O-])cc1 [compound 46, 2-amino-N-(2-methoxyphenyl)-6-((4-nitroph-enyl)sulfonyl)benzamide] |  |  | TI(CC50/EC50) (HIV-1TC-1): >1818.18; TI (HIV-1IIIB (C8166 cells); C8166 cells): 2081.59 and 2018.59; TI (HIV-1IIIB(H9 cells); H9 cells): >303.03; safety at a high dose (Acute toxicity test): very safe; acute toxicity test (Acute toxicity test): no abnormal phenomenon occurred; TI(CC50/EC50) (HIV-1A17): >20; TI(CC50/EC50) (HIVKM018): >31.65
13 | COc1ccccc1NC(=O)c1c(NC(=O)C(N)Cc2ccccc2)cccc1S(=O)(=O)c1ccc([N+](=O)[O-])cc1 (centres unmarked) [compound 83, 2-(2-amino-3-phenylpropanamido)-N-(2-methoxyphenyl)-6-((4-nitrophenyl)sulfonyl)benzamide] | 0.45 (≈ 0.783 µM) | 0.15 (≈ 0.261 µM) | 
14 | COc1ccccc1NC(=O)c1c(NCP(=O)(OC(C)C)OC(C)C)cccc1Sc1ccc([N+](=O)[O-])cc1 [compound 65, diisopropyl(((2-((2-methoxyphenyl)carbamoyl)-3-((4-nitro-phenyl)thio)phenyl)amino)methyl)phosphonate] |  |  | TI (HIV-1IIIB (C8166 cells); C8166 cells): 0.18; EC50 (HIV-1IIIB (C8166 cells); Human immunodeficiency virus 1, C8166): 106 mg/L (≈ 184 µM); TI (HIV-1IIIB(H9 cells); H9 cells): 0.13; EC50 (HIV-1IIIB(H9 cells); Human immunodeficiency virus 1, H9): > 200 mg/L
15 | Nc1cccc(Sc2ccc([N+](=O)[O-])cc2)c1C(=O)Nc1ccccc1I [compound 71, 2-amino-N-(2-iodophenyl)-6-((4-nitrophenyl)thio)benzamide] | 61.4 (≈ 125 µM) | > 200 | 
16 | COc1ccccc1NC(=O)c1cc(N)ccc1Sc1ccc([N+](=O)[O-])cc1 [compound 24, 5-amino-N-(2-methoxyphenyl)-2-((4-nitrophenyl)thio)benzamide] | 2.59 (≈ 6.55 µM) | 2.62 (≈ 6.63 µM) | 
17 | COc1ccccc1NC(=O)c1c(N)cccc1S(=O)(=O)c1ccc(C(=O)O)cc1 [compound 77, 4-((3-amino-2-((2-methoxyphenyl)carbamoyl)phenyl)sulfonyl)benzoic acid] | > 200 | > 200 | 
18 | Nc1cccc(S(=O)(=O)c2ccc([N+](=O)[O-])cc2)c1C(=O)Nc1ccccc1I [compound 72, 2-amino-N-(2-iodophenyl)-6-((4-nitrophenyl)sulfonyl)benzamide] | 16.2 (≈ 30.9 µM) | 193 (≈ 368 µM) | 
